Data as given in ChEMBL document CHEMBL1201862, “PubChem BioAssay data set” (2004).
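Method: 48-hour compound exposure of cells in 96-well plates, five concentrations, linear interpolation of endpoints. At the GI50, growth is halved.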 Activity calls are given as the source filed them. No stated cut-off is given here; in the data, active = GI50 up to about 1.1 µM and inactive = higher.

Key:
Test in all cases: NCI-60 cell line screen, 48 h
[1] = test system: SK-MEL-5
[2] = test system: HCT-15
[3] = test system: ACHN
[4] = test system: TK-10
[5] = test system: SR
[6] = test system: CCRF-CEM
[7] = test system: CAKI-1
[8] = test system: HOP-62
[9] = test system: COLO 205
[10] = test system: K562
[11] = test system: SW-620
[12] = test system: OVCAR-8
[13] = test system: NCI/ADR-RES
[14] = test system: 786-0
[15] = test system: OVCAR-3
[16] = test system: RPMI-8226
[17] = test system: MCF7
[18] = test system: SNB-75
[19] = test system: SK-OV-3
[20] = test system: Malme-3M

Row | SMILES | GI50 [1] | GI50 [2] [µM] | GI50 [3] | GI50 [4] | GI50 [5] | GI50 [6] | GI50 [7] | GI50 [8] | GI50 [9] | GI50 [10] | GI50 [11] | GI50 [12] | GI50 [13] | GI50 [14] | GI50 [15] | GI50 [16] | GI50 [17] | GI50 [18] | GI50 [19] | GI50 [20]
1 | CN(C)c1ccc2c3c(c(=O)oc2c1)CCC3 | 36.8 µM (inactive) | 50.7 | 58.5 µM (inactive) | 65.3 µM (inactive) | 42.6 µM (inactive) | 75 µM (inactive) | 43.8 µM (inactive) | 44 µM (inactive) | 33.1 µM (inactive) | 69.3 µM (inactive) | > 100 µM (inactive) | 64.4 µM (inactive) | 65.8 µM (inactive) | 58.6 µM (inactive) | > 100 µM (inactive) | 37.6 µM (inactive) | 28.2 µM (inactive) |  |  | 
2 | CC1(C)CC(=O)C2(CC(CSc3ccccc3)C(CS(=O)(=O)c3ccccc3)C2)C(=O)C1 (stereo not given) | > 100 µM (inactive) | > 100 | > 100 µM (inactive) | > 100 µM (inactive) |  | > 100 µM (inactive) | > 100 µM (inactive) | > 100 µM (inactive) | > 100 µM (inactive) | > 100 µM (inactive) | > 100 µM (inactive) | > 100 µM (inactive) | > 100 µM (inactive) | > 100 µM (inactive) | > 100 µM (inactive) | 66.4 µM (inactive) | > 100 µM (inactive) | 4.85 µM (inactive) | > 100 µM (inactive) | 
3 | O=C1c2cccnc2-c2nccc3ccnc1c23 | 0.61 µM (active) | 0.366 | 0.158 µM (active) | 1.7 µM (inactive) |  | 0.0309 µM (active) | 0.116 µM (active) | 3.53 µM (inactive) | 0.372 µM (active) | 0.0456 µM (active) | 0.474 µM (active) | 0.755 µM (active) | 0.294 µM (active) | 0.461 µM (active) | 0.343 µM (active) | 0.195 µM (active) | 0.24 µM (active) | 1.08 µM (active) | 1.49 µM (inactive) | 0.853 µM (active)
4 | CN(CCCNC(=O)c1n[nH]c2c1ccc1ccccc12)CCCNC(=O)c1n[nH]c2c1ccc1ccccc12 | 4.68 µM (inactive) | 17 | 17.6 µM (inactive) | 17.9 µM (inactive) |  | 11.1 µM (inactive) | 16.8 µM (inactive) | 16.8 µM (inactive) | 2.69 µM (inactive) |  | 16.3 µM (inactive) | 16.4 µM (inactive) | > 100 µM (inactive) | 10.9 µM (inactive) | 13.8 µM (inactive) |  | 15 µM (inactive) | 16.3 µM (inactive) | 18.1 µM (inactive) | 10.3 µM (inactive)
5 | O=C(CSCC(=O)N/N=C/c1ccccc1)N/N=C\c1ccccc1 | > 100 µM (inactive) | > 100 | > 100 µM (inactive) | > 100 µM (inactive) |  | > 100 µM (inactive) | > 100 µM (inactive) | > 100 µM (inactive) | > 100 µM (inactive) | > 100 µM (inactive) | > 100 µM (inactive) | > 100 µM (inactive) | > 100 µM (inactive) | > 100 µM (inactive) | > 100 µM (inactive) | 38.1 µM (inactive) | > 100 µM (inactive) | > 100 µM (inactive) | > 100 µM (inactive) | > 100 µM (inactive)
6 | CC(C)C1=CC(=O)[C@@](C)(C2[C@H](O)C[C@@]3(C)[C@@H]4CC=C5[C@@H](CC[C@@H](OC6OCC(O)C(O)C6OC6OC(C)C(O)C(O)C6O)C5(C)C)[C@]4(C)C(=O)C[C@]23C)O1 (stereo not given in full) | > 100 µM (inactive) | > 100 | > 100 µM (inactive) |  |  | > 100 µM (inactive) | > 100 µM (inactive) | > 100 µM (inactive) | > 100 µM (inactive) | > 100 µM (inactive) | > 100 µM (inactive) | > 100 µM (inactive) | > 100 µM (inactive) | > 100 µM (inactive) | > 100 µM (inactive) | > 100 µM (inactive) | > 100 µM (inactive) | > 100 µM (inactive) | > 100 µM (inactive) | > 100 µM (inactive)
7 | Cc1cccc(N/C(Sc2ccccc2)=C(/C(Cl)=C(Cl)Cl)[N+](=O)[O-])c1 |  | 15.3 | 26.4 µM (inactive) |  |  | 27 µM (inactive) | 19.9 µM (inactive) | 20.3 µM (inactive) | 15.6 µM (inactive) | 20.3 µM (inactive) | 17.4 µM (inactive) | 16.1 µM (inactive) | 15.8 µM (inactive) | 16.9 µM (inactive) | 10 µM (inactive) | 30.4 µM (inactive) | 29.3 µM (inactive) | 26.1 µM (inactive) | 20.5 µM (inactive) | 16.5 µM (inactive)
8 | CC(=O)[O-].[Zn+].c1ccc(/C(=N\Nc2ccccn2)c2ccccn2)cc1 | 0.0684 µM (active) | 0.0137 | 0.0653 µM (active) | 0.44 µM (active) |  | 0.00277 µM (active) | 0.119 µM (active) | 0.269 µM (active) | 0.00028 µM (active) | 0.00535 µM (active) | 0.0676 µM (active) | 0.0519 µM (active) | 0.0303 µM (active) | 0.137 µM (active) | 0.0015 µM (active) | 0.01 µM (active) | 0.000912 µM (active) | 0.914 µM (active) | 0.0615 µM (active) | 0.124 µM (active)
9 | CCOc1ccc(NC(=O)C(=O)C2C(=O)Nc3ccccc3[S+]2[O-])cc1 (stereo not given) | > 100 µM (inactive) | > 100 | > 100 µM (inactive) | > 100 µM (inactive) |  | > 100 µM (inactive) | > 100 µM (inactive) | > 100 µM (inactive) |  |  | > 100 µM (inactive) | > 100 µM (inactive) | > 100 µM (inactive) | > 100 µM (inactive) | > 100 µM (inactive) | > 100 µM (inactive) | > 100 µM (inactive) | 95.1 µM (inactive) | > 100 µM (inactive) | > 100 µM (inactive)
10 | O=C1O/C(=C(/Cl)c2cccc3ccccc23)c2ccccc21 | > 100 µM (inactive) | > 100 |  | > 100 µM (inactive) | > 100 µM (inactive) | > 10 µM (inactive) | > 100 µM (inactive) | 46.3 µM (inactive) | > 100 µM (inactive) | > 100 µM (inactive) | > 100 µM (inactive) | > 100 µM (inactive) |  | 82.2 µM (inactive) | > 100 µM (inactive) | > 100 µM (inactive) | 0.735 µM (active) | 22.2 µM (inactive) | > 100 µM (inactive) | > 100 µM (inactive)
11 | N#CC(O)CCOCc1ccccc1 (stereo not given) | > 100 µM (inactive) | 52.4 | 39.4 µM (inactive) | > 100 µM (inactive) | > 100 µM (inactive) | 35.4 µM (inactive) | 17.7 µM (inactive) | > 100 µM (inactive) | > 100 µM (inactive) | 80.7 µM (inactive) | 45.4 µM (inactive) | > 100 µM (inactive) | > 100 µM (inactive) | 78.7 µM (inactive) | > 100 µM (inactive) | 41.7 µM (inactive) | 41.6 µM (inactive) |  | > 100 µM (inactive) | > 10 µM (inactive)
12 | COC(=O)c1c(O)ccc2c1c1c(n2Cc2ccccn2)C(=O)c2ccccc2C1=O | 50.5 µM (inactive) | 46 | 18.5 µM (inactive) | 99.8 µM (inactive) | 22 µM (inactive) | 80 µM (inactive) | 80.5 µM (inactive) | 26.7 µM (inactive) | 14.5 µM (inactive) | > 100 µM (inactive) |  | 50.4 µM (inactive) | 41.3 µM (inactive) | 30.9 µM (inactive) | 18.1 µM (inactive) | 25.3 µM (inactive) | 54.1 µM (inactive) |  | 21.7 µM (inactive) | 31.2 µM (inactive)
13 | O=c1cc(-c2ccccc2)[nH]c2cccc(S)c12 | 0.0944 µM (active) | 0.344 | 0.804 µM (active) |  | 0.172 µM (active) | 0.177 µM (active) |  | 0.331 µM (active) | 0.249 µM (active) | 0.0588 µM (active) | 0.0566 µM (active) | 0.324 µM (active) | 0.0796 µM (active) | 0.301 µM (active) | 3.14 µM (inactive) | 0.424 µM (active) | 0.465 µM (active) |  | 0.119 µM (active) | 0.153 µM (active)
14 | C=C(Cl)C(=C)CCC(Cl)C(C)C (stereo not given) | > 100 µM (inactive) |  | > 100 µM (inactive) | > 100 µM (inactive) | > 100 µM (inactive) | > 100 µM (inactive) | > 100 µM (inactive) | > 100 µM (inactive) | > 100 µM (inactive) | > 100 µM (inactive) | > 100 µM (inactive) |  | > 100 µM (inactive) | > 100 µM (inactive) | > 100 µM (inactive) | > 100 µM (inactive) | > 100 µM (inactive) |  | > 100 µM (inactive) | > 100 µM (inactive)
15 | Cc1ccc2c(=O)c(C(=O)Nn3c(C)csc3=S)c[nH]c2n1 | > 100 µM (inactive) | > 100 | > 100 µM (inactive) | > 100 µM (inactive) |  | > 100 µM (inactive) | 69 µM (inactive) | > 100 µM (inactive) | > 100 µM (inactive) | > 100 µM (inactive) | > 100 µM (inactive) | > 100 µM (inactive) | > 100 µM (inactive) | > 100 µM (inactive) | > 100 µM (inactive) | > 100 µM (inactive) | > 100 µM (inactive) |  |  | > 100 µM (inactive)
16 | COC(=O)[C@@]1(Cc2ccc(OC(C)=O)cc2)Cc2cc3ccccc3n2N1 | 18.2 µM (inactive) | 53.5 | 58.1 µM (inactive) | 33.7 µM (inactive) | 13.5 µM (inactive) | 26.5 µM (inactive) | > 100 µM (inactive) | > 100 µM (inactive) | 31.2 µM (inactive) |  | 29.2 µM (inactive) | 50.8 µM (inactive) | 26.5 µM (inactive) | 33.7 µM (inactive) | 69.5 µM (inactive) | 26.6 µM (inactive) | 29.9 µM (inactive) |  | > 100 µM (inactive) | 47.5 µM (inactive)
